This passage reports inhibition results from US20100317624A1 (ASTRAZENECA AB, priority 2009, published 2010).

The target of this test is S. aureus GyrB ATPase (Staphylococcus aureus, UniProt P0A0K8). Kind of test: S. aureus GyrB ATPase inhibition (ammonium molybdate/malachite green phosphate detection). The format is biochemical. The note with it: compound at 1 μM; inhibition of S. aureus GyrB ATPase; read-out: Percent Inhibition (1 μM). The method, then: S. aureus GyrB ATPase Inhibition Activity: Compounds may be tested for inhibition of S. aureus GyrB ATPase activity using an ammonium molybdate/malachite green-based phosphate detection assay (Lanzetta, P. A., L. J. Alvarez, P. S. Reinach, and O. A. Candia, 1979, 100: 95-97). Assays can be performed in multiwell plates in 30 μl reactions containing: 50 mM Hepes buffer pH 7.5, 75 mM ammonium acetate, 8.0 mM magnesium chloride, 0.5 mM ethylenediaminetetraacetic acid, 5% glycerol, 1.0 mM 1,4-Dithio-DL-threitol, 200 nM bovine serum albumin, 1.0 μg/ml sheared salmon sperm DNA, 250 pM E. coli GyrA, 250 pM S. aureus GyrB, 250 μM ATP, and compound in dimethylsulfoxide. Reactions can be quenched with 30 μl of ammonium molybdate/malachite green detection reagent containing 1.2 mM malachite green hydrochloride, 8.5 mM ammonium molybdate tetrahydrate, and 1 M hydrochloric acid. Plates can be read in an absorbance plate reader at 650 nm and percent inhibition values can be calculated using dimethylsulfoxide (2%)-containing reactions as 0% inhibition and EDTA-containing ([…]) reactions as 100% inhibition controls. An IC50 measurement of compound potency for each compound can be determined from reactions performed in the presence of 10 different compound concentrations.

Structures can show the parent of a compound that is named as a salt.

Chain of S. aureus GyrB ATPase (P0AES4 whole entry): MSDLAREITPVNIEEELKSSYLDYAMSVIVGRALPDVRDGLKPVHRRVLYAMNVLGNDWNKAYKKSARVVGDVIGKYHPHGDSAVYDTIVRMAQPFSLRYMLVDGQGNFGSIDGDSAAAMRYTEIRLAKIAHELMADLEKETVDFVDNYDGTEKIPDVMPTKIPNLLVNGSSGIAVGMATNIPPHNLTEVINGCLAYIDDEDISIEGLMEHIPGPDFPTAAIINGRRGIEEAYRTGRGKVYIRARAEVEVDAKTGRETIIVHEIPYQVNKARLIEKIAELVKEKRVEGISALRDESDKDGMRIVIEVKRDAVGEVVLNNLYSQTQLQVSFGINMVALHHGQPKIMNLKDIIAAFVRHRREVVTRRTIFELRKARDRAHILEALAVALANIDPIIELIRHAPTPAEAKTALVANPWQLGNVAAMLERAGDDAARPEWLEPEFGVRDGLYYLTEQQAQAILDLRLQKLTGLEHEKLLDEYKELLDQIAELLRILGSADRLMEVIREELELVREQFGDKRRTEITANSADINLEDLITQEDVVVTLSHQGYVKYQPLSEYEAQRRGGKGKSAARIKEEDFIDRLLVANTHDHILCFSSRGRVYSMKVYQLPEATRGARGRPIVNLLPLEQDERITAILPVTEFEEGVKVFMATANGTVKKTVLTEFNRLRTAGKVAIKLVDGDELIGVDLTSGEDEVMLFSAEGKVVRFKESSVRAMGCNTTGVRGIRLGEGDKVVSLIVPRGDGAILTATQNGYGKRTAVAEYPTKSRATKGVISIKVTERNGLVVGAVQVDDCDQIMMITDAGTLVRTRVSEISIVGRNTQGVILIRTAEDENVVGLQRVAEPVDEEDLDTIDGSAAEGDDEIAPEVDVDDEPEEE
Chain of S. aureus GyrB ATPase (P0A0K8 whole entry): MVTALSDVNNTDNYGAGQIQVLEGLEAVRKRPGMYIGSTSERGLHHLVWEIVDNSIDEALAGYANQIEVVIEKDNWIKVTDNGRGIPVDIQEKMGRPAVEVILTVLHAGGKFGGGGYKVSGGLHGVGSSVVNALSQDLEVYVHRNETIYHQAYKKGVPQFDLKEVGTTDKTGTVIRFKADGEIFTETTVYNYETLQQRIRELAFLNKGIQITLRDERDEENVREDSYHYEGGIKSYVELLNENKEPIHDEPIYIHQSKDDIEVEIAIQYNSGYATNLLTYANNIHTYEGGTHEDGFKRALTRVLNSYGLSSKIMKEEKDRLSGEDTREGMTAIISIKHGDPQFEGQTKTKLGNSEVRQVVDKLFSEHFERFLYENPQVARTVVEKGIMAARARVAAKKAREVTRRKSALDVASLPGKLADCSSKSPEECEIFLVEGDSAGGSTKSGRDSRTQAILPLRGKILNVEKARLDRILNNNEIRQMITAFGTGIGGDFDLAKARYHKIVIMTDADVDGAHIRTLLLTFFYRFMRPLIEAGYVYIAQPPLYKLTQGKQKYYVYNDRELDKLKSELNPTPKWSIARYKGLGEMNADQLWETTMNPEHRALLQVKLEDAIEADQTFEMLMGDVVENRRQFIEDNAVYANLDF

The inhibition is the drop in the measured response relative to a control, in per cent. For the compound `CCNC(=O)Nc1cc(-c2nc(C(F)(F)F)cs2)c(-c2ccc3c(c2)c(=O)c(C(=O)OCCOC(=O)C(C)(C)C)cn3C(COC)COC)cn1` [Example 44, 2-(pivaloyloxy)ethyl 1-(1,3-dimethoxypropan-2-yl)-6-(6-(3-ethylureido)-4-(4-(trifluoromethyl)thiazol-2-yl)pyridin-3-yl)-4-oxo-1,4-dihydroquinoline-3-carboxylate], the inhibition at 1 µM stood at 98%.
The same measure for `CCNC(=O)Nc1cc(-c2nc(C(F)(F)F)cs2)c(-c2ccc3c(c2)c(=O)c(C(=O)O)cn3[C@H]2[C@@H]3CN(C)C[C@@H]32)cn1` [Example 35, 6-{6-[(ethylcarbamoyl)amino]-4-[4-(trifluoromethyl)-1,3-thiazol-2-yl]pyridin-3-yl}-1-[(1R,5S,6s)-3-methyl-3-azabicyclo[3.1.0]hex-6-yl]-4-oxo-1,4-dihydroquinoline-3-carboxylic acid]: 108%; for `CCNC(=O)Nc1cc(-c2nc(-c3ccccc3)cs2)c(-c2cc3c(=O)c(C(=O)O)cn(CCN(C)C)c3cc2OCCN(C)C)cn1` [Example 24, 7-(2-(dimethylamino)ethoxy)-1-(2-(dimethylamino)ethyl)-6-(6-(3-ethylureido)-4-(4-phenylthiazol-2-yl)pyridin-3-yl)-4-oxo-1,4-dihydroquinoline-3-carboxylic acid]: 107%.
`CCNC(=O)Nc1cc(-c2nc(C(F)(F)F)cs2)c(-c2cc3c(=O)c(C(=O)O)cn(CC)c3cc2N2CCN(C)CC2)cn1` [Example 22, 1-ethyl-6-(6-(3-ethylureido)-4-(4-(trifluoromethyl)thiazol-2-yl)pyridin-3-yl)-7-(4-methylpiperazin-1-yl)-4-oxo-1,4-dihydroquinoline-3-carboxylic acid]: the inhibition at 1 µM amounted to 103%.
The same measure for `CCNC(=O)Nc1cc(-c2nc(C(F)(F)F)cs2)c(-c2ccc3c(c2)c(=O)c(C(=O)O)cn3CC(C)N2CCOCC2)cn1` (centres unmarked) [Example 56, 6-(6-(3-Ethylureido)-4-(4-(trifluoromethyl)thiazol-2-yl)pyridin-3-yl)-1-(2-morpholinopropyl)-4-oxo-1,4-dihydroquinoline-3-carboxylic acid]: 101%; for `CCNC(=O)Nc1cc(-c2nc(C(F)(F)F)cs2)c(-c2ccc3c(c2)c(=O)c(C(=O)O)cn3C[C@H]2CCN(CCN3CCN(C)CC3)C2)cn1` [Example 37, (S)-6-(6-(3-ethylureido)-4-(4-(trifluoromethyl)thiazol-2-yl)pyridin-3-yl)-1-((1-(2-(4-methylpiperazin-1-yl)ethyl)pyrrolidin-3-yl)methyl)-4-oxo-1,4-dihydroquinoline-3-carboxylic acid]: 100%; for `CCNC(=O)Nc1cc(-c2nc(C(F)(F)F)cs2)c(-c2cc3c(=O)c(C(=O)O)cn([C@H](CO)C(C)C)c3cc2OC)cn1` [Example 28, 6-(6-(3-ethylureido)-4-(4-(trifluoromethyl)thiazol-2-yl)pyridin-3-yl)-1-((S)-1-hydroxy-3-methylbutan-2-yl)-7-methoxy-4-oxo-1,4-dihydroquinoline-3-carboxylic acid]: 104%.
The same measure for `CCNC(=O)Nc1cc(-c2nc(C(F)(F)F)cs2)c(-c2ccc3c(=O)c(C(=O)NCCCOP(=O)(O)O)cn(Cc4noc(C)n4)c3c2)cn1` [Example 13, 3-{[(7-{6[(ethylcarbamoyl)amino]-4-[4-(trifluoromethyl)-1,3-thiazol-2-yl]pyridin-3-yl}-1-[(5-methyl-1,2,4-oxadiazol-3-yl)methyl]-4-oxo-1,4-dihydroquinolin-3-yl)carbonyl]amino}propyl dihydrogen phosphate]: 99%; for `CCNC(=O)Nc1cc(-c2nc(-c3ccccc3)cs2)c(-c2cc3c(=O)c(C(=O)O)cn(C[C@H]4CCCN4CC)c3cc2OCCN(CC)CC)cn1` [Example 45, (R)-7-(2-(diethylamino)ethoxy)-1-((1-ethylpyrrolidin-2-yl)methyl)-6-(6-(3-ethylureido)-4-(4-phenylthiazol-2-yl)pyridin-3-yl)-4-oxo-1,4-dihydroquinoline-3-carboxylic acid]: 102%; for `CCNC(=O)Nc1cc(-c2nc(C3CC3)cs2)c(-c2ccc3c(c2)c(=O)c(C(=O)O)cn3[C@H](COP(=O)(O)O)CC(C)C)cn1` [Example 12, (S)-6-(4-(4-cyclopropylthiazol-2-yl)-6-(3-ethylureido)pyridin-3-yl)-1-(4-methyl-1-(phosphonooxy)pentan-2-yl)-4-oxo-1,4-dihydroquinoline-3-carboxylic acid]: 104%.
The same measure for `CCNC(=O)Nc1cc(-c2nc(C(F)(F)F)cs2)c(-c2cc3c(=O)c(C(=O)O)cn(CCN(C)C)c3cc2NCCN(C)C)cn1` [Example 55, 1-(2-(dimethylamino)ethyl)-7-(2-(dimethylamino)ethylamino)-6-(6-(3-ethylureido)-4-(4-(trifluoromethyl)thiazol-2-yl)pyridin-3-yl)-4-oxo-1,4-dihydroquinoline-3-carboxylic acid]: 100%; for `CCNC(=O)Nc1cc(-c2nc(C(F)(F)F)cs2)c(-c2cc3c(=O)c(C(=O)O)cn([C@H](CO)CC(C)C)c3cc2F)cn1` [Example 52, (S)-6-(6-(3-ethylureido)-4-(4-(trifluoromethyl)thiazol-2-yl)pyridin-3-yl)-7-fluoro-1-(1-hydroxy-4-methylpentan-2-yl)-4-oxo-1,4-dihydroquinoline-3-carboxylic acid]: 103%; for `CCNC(=O)Nc1cc(-c2nc(C(F)(F)F)cs2)c(-c2cc3c(=O)c(C(=O)O)cn([C@H](CO)C(C)(C)C)c3cc2F)cn1` [Example 27, 6-(6-(3-ethylureido)-4-(4-(trifluoromethyl)thiazol-2-yl)pyridin-3-yl)-7-fluoro-1-((S)-1-hydroxy-3,3-dimethylbutan-2-yl)-4-oxo-1,4-dihydroquinoline-3-carboxylic acid]: 125%.
Consider `CCNC(=O)Nc1cc(-c2nc(C(F)(F)F)cs2)c(-c2ccc3c(c2)c(=O)c(C(=O)NCCCOP(=O)(O)O)cn3C2CC2)cn1` [Example 11, 3-(1-cyclopropyl-6-(6-(3-ethylureido)-4-(4-(trifluoromethyl)thiazol-2-yl)pyridin-3-yl)-4-oxo-1,4-dihydroquinoline-3-carboxamido)propyl dihydrogen phosphate hydrochloride], for which the inhibition at 1 µM was found to be 108%.
The same measure for `CCNC(=O)Nc1cc(-c2nc(C(F)(F)F)cs2)c(-c2cc3c(=O)c(C(=O)O)cn(C[C@@H]4CCCN4CC)c3cc2OCCN(C)C)cn1` [Example 25, 7-(2-(dimethylamino)ethoxy)-1-(((S)-1-ethylpyrrolidin-2-yl)methyl)-6-(6-(3-ethylureido)-4-(4-(trifluoromethyl)thiazol-2-yl)pyridin-3-yl)-4-oxo-1,4-dihydroquinoline-3-carboxylic acid]: 98%.
The same measure for `CCNC(=O)Nc1cc(-c2nc(C(F)(F)F)cs2)c(-c2ccc3c(c2)c(=O)c(C(=O)O)cn3C[C@@H]2CCN(CCN3CCN(C)CC3)C2)cn1` [Example 36, (R)-6-(6-(3-ethylureido)-4-(4-(trifluoromethyl)thiazol-2-yl)pyridin-3-yl)-1-((1-(2-(4-methylpiperazin-1-yl)ethyl)pyrrolidin-3-yl)methyl)-4-oxo-1,4-dihydroquinoline-3-carboxylic acid]: 112%; for `CCNC(=O)Nc1cc(-c2nc(C(F)(F)F)cs2)c(-c2ccc3c(c2)c(=O)c(C(=O)NCCOP(=O)(O)O)cn3C2CC2)cn1` [Example 9, 2-(1-cyclopropyl-6-(6-(3-ethylureido)-4-(4-(trifluoromethyl)thiazol-2-yl)pyridin-3-yl)-4-oxo-1,4-dihydroquinoline-3-carboxamido)ethyl dihydrogen phosphate hydrochloride]: 103%.
The same measure for `CCNC(=O)Nc1cc(-c2nc(C(F)(F)F)cs2)c(-c2ccc3c(c2)c(=O)c(C(=O)O)cn3[C@H](CC)COP(=O)(O)O)cn1` [Example 6, (R)-6-(6-(3-ethylureido)-4-(4-(trifluoromethyl)thiazol-2-yl)pyridin-3-yl)-4-oxo-1-(1-(phosphonooxy)butan-2-yl)-1,4-dihydroquinoline-3-carboxylic acid]: 96%.
In the case of `CCNC(=O)Nc1cc(-c2nc(C(F)(F)F)cs2)c(-c2ccc3c(c2)c(=O)c(C(=O)O)cn3[C@H](COP(=O)(O)O)C(C)(C)C)cn1` [Example 3, (S)-1-(3,3-dimethyl-1-(phosphonooxy)butan-2-yl)-6-(6-(3-ethylureido)-4-(4-(trifluoromethyl)thiazol-2-yl)pyridin-3-yl)-4-oxo-1,4-dihydroquinoline-3-carboxylic acid], the inhibition at 1 µM worked out at 108%.
The same measure for `CCNC(=O)Nc1cc(-c2nc(C(F)(F)F)cs2)c(-c2ccc3c(=O)c(C(=O)NCCCOP(=O)(O)O)cn(CCC(C)C)c3c2)cn1` [Example 16, 3-({[7-{6-[(ethylcarbamoyl)amino]-4-[4-(trifluoromethyl)-1,3-thiazol-2-yl]pyridin-3-yl}-1-(3-methylbutyl)-4-oxo-1,4-dihydroquinolin-3-yl]carbonyl}amino)propyl dihydrogen phosphate]: 100%.
